Test results: ChEMBL document CHEMBL1201862, “PubChem BioAssay data set” (2004)
Activity calls are given as the source filed them.

How the values were obtained:
[1] = test system: Escherichia coli; test: microbe, parasite or virus in culture
[2] = biological target: Glucose-6-phosphate 1-dehydrogenase (Homo sapiens, UniProt P11413); test: human G6PD enzyme inhibitors, dose response, selectivity assay for P. falciparum G6PD inhibitor project, biochemical, fluorescence (AID 504792); assay type: functional
Chain of Glucose-6-phosphate 1-dehydrogenase (P11413 whole entry): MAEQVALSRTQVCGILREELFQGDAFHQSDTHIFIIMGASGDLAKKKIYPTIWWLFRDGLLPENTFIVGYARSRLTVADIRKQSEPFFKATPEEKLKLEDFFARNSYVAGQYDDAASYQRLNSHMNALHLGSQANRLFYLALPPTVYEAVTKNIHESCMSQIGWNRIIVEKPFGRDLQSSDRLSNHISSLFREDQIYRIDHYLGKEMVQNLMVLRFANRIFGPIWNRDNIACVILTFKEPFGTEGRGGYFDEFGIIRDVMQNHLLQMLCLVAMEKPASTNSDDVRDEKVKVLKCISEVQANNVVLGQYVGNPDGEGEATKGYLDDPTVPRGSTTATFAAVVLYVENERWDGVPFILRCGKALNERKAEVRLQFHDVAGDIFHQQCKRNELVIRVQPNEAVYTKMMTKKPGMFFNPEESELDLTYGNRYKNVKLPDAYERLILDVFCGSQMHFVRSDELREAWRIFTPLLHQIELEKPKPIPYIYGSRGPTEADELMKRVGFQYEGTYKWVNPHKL

[3] = HEp-2 cell cytotoxicity, dose response, cytotoxicity control for RSV inhibitor project, HTS (AID 2410); assay type: functional; conditions: human respiratory syncytial virus
[4] = biological target: T1, High affinity choline transporter 1 (Homo sapiens, UniProt Q9GZV3); test: CHT inhibitors, dose response, cell-based, 5-point CRC, membrane potential dye (AID 504840); assay type: functional
T1 sequence (Q9GZV3 whole entry): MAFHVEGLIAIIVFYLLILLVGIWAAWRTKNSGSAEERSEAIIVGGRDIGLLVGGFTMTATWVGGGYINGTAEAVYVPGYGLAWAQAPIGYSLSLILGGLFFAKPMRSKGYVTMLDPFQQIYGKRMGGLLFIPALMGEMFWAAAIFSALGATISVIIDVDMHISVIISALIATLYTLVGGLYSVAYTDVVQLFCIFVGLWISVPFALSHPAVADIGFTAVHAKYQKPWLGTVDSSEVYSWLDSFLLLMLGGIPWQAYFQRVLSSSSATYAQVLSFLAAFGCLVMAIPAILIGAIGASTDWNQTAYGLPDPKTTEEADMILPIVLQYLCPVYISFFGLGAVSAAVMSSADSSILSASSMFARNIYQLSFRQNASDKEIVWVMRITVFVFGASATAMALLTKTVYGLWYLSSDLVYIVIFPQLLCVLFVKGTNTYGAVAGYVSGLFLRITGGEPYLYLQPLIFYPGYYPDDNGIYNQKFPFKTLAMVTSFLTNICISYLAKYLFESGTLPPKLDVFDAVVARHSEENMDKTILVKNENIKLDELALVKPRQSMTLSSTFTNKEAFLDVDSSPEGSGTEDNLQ

[5] = cells
[6] = biological target: T2, Polyadenylate-binding protein 1 (Homo sapiens, UniProt P11940); test: PABP1 MLLE–PAM2 binding inhibitor potency, dose response, biochemical, fluorescence polarization, FITC-PAM2 peptide (AID 602259); assay type: functional; conditions: read-out: IC50_Mean
T2 sequence (P11940 whole entry): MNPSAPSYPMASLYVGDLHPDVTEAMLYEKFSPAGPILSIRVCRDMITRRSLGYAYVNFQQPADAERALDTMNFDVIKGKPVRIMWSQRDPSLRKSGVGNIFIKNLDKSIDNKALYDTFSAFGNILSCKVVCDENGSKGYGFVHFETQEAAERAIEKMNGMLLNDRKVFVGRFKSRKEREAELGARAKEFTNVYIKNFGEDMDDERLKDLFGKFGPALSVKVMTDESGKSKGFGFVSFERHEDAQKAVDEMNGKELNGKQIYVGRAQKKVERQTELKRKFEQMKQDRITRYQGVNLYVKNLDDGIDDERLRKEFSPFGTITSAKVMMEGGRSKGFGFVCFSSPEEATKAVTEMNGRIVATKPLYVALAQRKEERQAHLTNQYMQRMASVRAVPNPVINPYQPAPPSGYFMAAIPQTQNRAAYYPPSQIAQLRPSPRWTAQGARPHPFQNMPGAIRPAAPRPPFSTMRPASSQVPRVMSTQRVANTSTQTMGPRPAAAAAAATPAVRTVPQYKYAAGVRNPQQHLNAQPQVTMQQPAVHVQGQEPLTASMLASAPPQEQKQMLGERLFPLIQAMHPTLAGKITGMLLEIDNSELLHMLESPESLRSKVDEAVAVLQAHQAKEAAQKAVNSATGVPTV

[7] = biological target: T2, Polyadenylate-binding protein 1; test: PABP1 MLLE–PAM2 interaction inhibitors, dose response, miRNA deadenylation inhibitor project, biochemical, fluorescence polarization, Cy5-PAM2 peptide, secondary (AID 602260); assay type: functional; conditions: read-out: IC50_Mean
[8] = HepG2 cell cytotoxicity, dose response, cytotoxicity control, plate reader, cherry-pick, antagonist series (AID 743416); assay type: functional, cell-based
[9] = LGR2 antagonists, dose response, cell-based, HEK293, CRE-luciferase reporter, cherry pick, set 2 (AID 743343); assay type: functional;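 note: transfected cells were stimulated with diluted bursicon conditioned medium after compound addition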
[10] = MC4R antagonists, dose response, counter-screen for LGR2 antagonist project, cell-based, plate reader, cherry pick (AID 743444); assay type: functional;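 note: transfected HEK 293 cells stimulated with alpha-MSH peptide; potency of inhibitors of the alpha-MSH evoked signal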
[11] = test system: Vero; test: cells; assay type: functional, cell-based; conditions: Chlorocebus sabaeus
[12] = CEM21 lymphoblast cell cytotoxicity, dose response, cytotoxicity control for viral fusion inhibitor project, CellTiter-Glo luminescence, cherry-picked (AID 652042); assay type: functional, cell-based;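 note: potency for signal decrease meaning cytotoxicity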
[13] = inhibitors of clade B AD8 Env fusion, dose response, cell-based, cherry-pick (AID 652062); assay type: functional;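 note: luciferase signal from cell-cell fusion driven by HIV-1 clade B AD8 Env; potency is for inhibitors of fusion seen as a drop in luminescence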
[14] = off-target signal loss in HeLa-CEM21 co-culture – HeLa F-luc CTL cells, cherry-picked, counter-screen for HIV-1 Env fusion inhibitor project, dose response (AID 652040); assay type: functional, cell-based;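 note: potency for signal decrease marking cytotoxic or nonspecific inhibition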

Cc1nn(Cc2ccccc2Cl)c(C)c1NC(=O)c1ccn(C)n1
AC50 [1]: 19.1 µM (active)

Cc1ccc(NC(=O)c2cc(C)n(-c3ccccc3)c2C)cc1
IC50 [2]: > 80 µM (inactive)
CC50 [3]: 16.9 µM (active)

O=C(NC1CCCCC1)C(c1ccc2ncccc2c1)N(Cc1ccc2c(c1)OCO2)C(=O)c1cccs1 (stereo unspecified)
IC50 [4]: 16.5 µM (active)

COc1cccc(CNC(=O)c2cc3oc4ccccc4c3n2C)c1OC
CC50 [3]: 11.7 µM (active)
IC50 [5]: 4.72 µM (active)

CC(=O)NS(=O)(=O)c1ccc(NC(=O)c2cc(-c3cccs3)nc3ccccc23)cc1
AC50 [1]: 36.4 µM (active)

N=C(N)NC(=S)Nc1ccc(Cl)cc1
IC50 [6]: > 66 µM (inactive)
IC50 [7]: > 66 µM (inactive)

CCNC(=O)c1ccc(NS(=O)(=O)c2ccccc2)cc1
AC50 [1]: 27.4 µM (active)

CCC(=O)Nc1cc2nn(-c3ccc(OC)cc3)nc2cc1C
AC50 [8]: > 52 µM (inactive)
AC50 [9]: 3.64 µM (active)
AC50 [10]: 2.52 µM (active)

COC(=O)C1=C(C)N(Cc2ccccc2)C(=O)N[C@H]1c1ccc(Br)cc1
IC50 [5]: 4.43 µM (active)

Cc1ccc(C(=O)N/C(=C/c2ccco2)C(=O)Nc2cccc(C)c2)cc1
IC50 [4]: 13.7 µM (active)

Cc1ccc(-c2nn(-c3ccccc3)cc2C2CC(c3cccs3)=NN2C(=O)CCCC(=O)O)cc1 (stereo unspecified)
CC50 [3]: > 50 µM (active)
IC50 [5]: 36.9 µM (active)

CC(=O)Nc1nnc(SCC(=O)c2ccc3c(c2)Cc2ccccc2-3)s1
CC50 [3]: 45.6 µM (active)
IC50 [5]: 36 µM (active)
IC50 [11]: 10.9 µM (active)

CC(C)(C)C(=O)Nc1sc(-c2ccccc2)cc1C(=O)O
CC50 [3]: 17.9 µM (active)
IC50 [5]: 14.3 µM (active)
IC50 [11]: 24.1 µM (active)

COC(=O)CCC(=O)OC1(C)C(=O)C2=CN(c3ccc(OC)cc3)C(c3ccc(OC)cc3)=CC2=C(Br)C1=O (stereo unspecified)
IC50 [2]: 30.1 µM (inactive)

COc1ccccc1S(=O)(=O)Cc1ccc(C(=O)N2CCN(c3cccc(Cl)c3)CC2)o1
AC50 [12]: 17.1 µM (active)
AC50 [13]: 43 µM (active)
AC50 [14]: > 70 µM (inactive)

O=C(COC(=O)CCCSc1nc2ccccc2[nH]1)NC(=O)NC1CCCC1
IC50 [4]: 7.24 µM (active)

CC1=C(C(=O)O)N2C(=O)C(NC(=O)c3ccn(C)n3)C2SC1 (stereo unspecified)
IC50 [6]: > 66 µM (inactive)
IC50 [7]: > 66 µM (inactive)

Cc1ccc(C(=O)NCC(=O)NCC(=O)OCC(=O)c2ccc([N+](=O)[O-])cc2)cc1
IC50 [2]: > 80 µM (inactive)
